In ChEMBL document CHEMBL1139935, “Discovery of novel indazole-linked triazoles as antifungal agents” (2007):
≈ marks a conversion by molar mass, not a printed value.

How the values were obtained:
Candida albicans = experiment: Antifungal activity against Candida albicans ATCC 36082 by broth microdilution assay; format: functional
Nakaseomyces glabratus = experiment: Antifungal activity against Candida glabrata ATCC 34138 by broth microdilution assay; format: functional
Pichia kudriavzevii = experiment: Antifungal activity against Candida krusei ATCC 6528 by broth microdilution assay; format: functional
Clavispora lusitaniae = experiment: Antifungal activity against Candida lusitaniae ATCC 42720 by broth microdilution assay; format: functional
Candida tropicalis = experiment: Antifungal activity against Candida tropicalis ATCC 750 by broth microdilution assay; format: functional
Candida parapsilosis = experiment: Antifungal activity against Candida parapsilosis ATCC 21019 by broth microdilution assay; format: functional; details: Lodderomyces parapsilosis
Aspergillus fumigatus = experiment: Antifungal activity against Aspergillus fumigatus ATCC 16424 by broth microdilution assay; format: functional
Aspergillus flavus = experiment: Antifungal activity against Aspergillus flavus ATCC MYA-1004 by broth microdilution assay; format: functional
Aspergillus terreus = experiment: Antifungal activity against Aspergillus terreus ATCC 28301 by broth microdilution assay; format: functional
Aspergillus niger = experiment: Antifungal activity against Aspergillus niger ATCC 9042 by broth microdilution assay; format: functional
Cryptococcus neoformans = experiment: Antifungal activity against Cryptococcus neoformans ATCC 24065 by broth microdilution assay

SMILES | MIC80 (Candida albicans) [µg/mL] | MIC80 (Nakaseomyces glabratus) [µg/mL] | MIC80 (Pichia kudriavzevii) [µg/mL] | MIC80 (Clavispora lusitaniae) [µg/mL] | MIC80 (Candida tropicalis) [µg/mL] | MIC80 (Candida parapsilosis) [µg/mL] | MIC80 (Aspergillus fumigatus) [µg/mL] | MIC80 (Aspergillus flavus) [µg/mL] | MIC80 (Aspergillus terreus) [µg/mL] | MIC80 (Aspergillus niger) [µg/mL] | MIC80 (Cryptococcus neoformans) [µg/mL]
C[C@@H](n1cc2cc(Cl)ccc2n1)[C@](O)(Cn1cncn1)c1ccc(F)cc1F | ≤ 0.015 | 4 (≈ 9.91 µM) | 0.125 (≈ 0.31 µM) | ≤ 0.015 | 0.031 (≈ 0.0768 µM) | ≤ 0.015 | 0.25 (≈ 0.619 µM) | 0.5 (≈ 1.24 µM) | 0.5 (≈ 1.24 µM) | 1 (≈ 2.48 µM) | 0.015 (≈ 0.0371 µM)
Cc1nn([C@H](C)[C@](O)(Cn2cncn2)c2ccc(F)cc2F)c2ccc(Cl)cc12 | ≤ 0.015 | 4 (≈ 9.57 µM) | 2 (≈ 4.79 µM) | ≤ 0.015 | 1 (≈ 2.39 µM) | 0.125 (≈ 0.299 µM) | > 16 | > 16 | > 16 | > 16 | 0.25 (≈ 0.598 µM)
CCc1nn([C@H](C)[C@](O)(Cn2cncn2)c2ccc(F)cc2F)c2ccc(F)cc12 | ≤ 0.015 | 4 (≈ 9.63 µM) | 2 (≈ 4.81 µM) | 0.063 (≈ 0.152 µM) | 2 (≈ 4.81 µM) | 0.125 (≈ 0.301 µM) | 16 (≈ 38.5 µM) | > 16 | > 16 | > 16 | 0.125 (≈ 0.301 µM)
Cc1nn([C@H](C)[C@](O)(Cn2cncn2)c2ccc(F)cc2F)c2ccc(F)cc12 | 0.031 (≈ 0.0772 µM) | 8 (≈ 19.9 µM) | 4 (≈ 9.97 µM) | 0.125 (≈ 0.311 µM) | 4 (≈ 9.97 µM) | 0.5 (≈ 1.25 µM) | 4 (≈ 9.97 µM) | 8 (≈ 19.9 µM) | 4 (≈ 9.97 µM) | 16 (≈ 39.9 µM) | 0.5 (≈ 1.25 µM)
C[C@@H](n1nc(-c2ccccc2)c2cc([N+](=O)[O-])ccc21)[C@](O)(Cn1cncn1)c1ccc(F)cc1F | 2 (≈ 4.08 µM) | – | – | – | – | – | – | – | – | – | –
Cc1nn([C@H](C)[C@](O)(Cn2cncn2)c2ccc(F)cc2F)c2cc(F)ccc12 | 0.031 (≈ 0.0772 µM) | > 8 | 8 (≈ 19.9 µM) | 0.25 (≈ 0.623 µM) | > 8 | 0.5 (≈ 1.25 µM) | 16 (≈ 39.9 µM) | > 16 | > 16 | > 16 | 0.5 (≈ 1.25 µM)
Cc1nn([C@H](C)[C@](O)(Cn2cncn2)c2ccc(F)cc2F)c2ccc([N+](=O)[O-])cc12 | 0.015 (≈ 0.035 µM) | 8 (≈ 18.7 µM) | 4 (≈ 9.34 µM) | 0.063 (≈ 0.147 µM) | 4 (≈ 9.34 µM) | 0.125 (≈ 0.292 µM) | 4 (≈ 9.34 µM) | 16 (≈ 37.3 µM) | 8 (≈ 18.7 µM) | 16 (≈ 37.3 µM) | 0.25 (≈ 0.584 µM)

Results, then the molecule that gave them:

MIC80 (Candida albicans) [µg/mL] | MIC80 (Nakaseomyces glabratus) [µg/mL] | MIC80 (Pichia kudriavzevii) [µg/mL] | MIC80 (Clavispora lusitaniae) [µg/mL] | MIC80 (Candida tropicalis) [µg/mL] | MIC80 (Candida parapsilosis) [µg/mL] | MIC80 (Aspergillus fumigatus) [µg/mL] | MIC80 (Aspergillus flavus) [µg/mL] | MIC80 (Aspergillus terreus) [µg/mL] | MIC80 (Aspergillus niger) [µg/mL] | MIC80 (Cryptococcus neoformans) [µg/mL] | SMILES
0.063 (≈ 0.152 µM) | > 8 | > 8 | 0.5 (≈ 1.21 µM) | 8 (≈ 19.3 µM) | 0.25 (≈ 0.603 µM) | 32 (≈ 77.2 µM) | 32 (≈ 77.2 µM) | 128 (≈ 309 µM) | 64 (≈ 154 µM) | 0.5 (≈ 1.21 µM) | C[C@@H](n1cc2ccc([N+](=O)[O-])cc2n1)[C@](O)(Cn1cncn1)c1ccc(F)cc1F
≤ 0.015 | 4 (≈ 10.3 µM) | 1 (≈ 2.58 µM) | ≤ 0.015 | 0.25 (≈ 0.645 µM) | 0.125 (≈ 0.323 µM) | 4 (≈ 10.3 µM) | 4 (≈ 10.3 µM) | 4 (≈ 10.3 µM) | 8 (≈ 20.7 µM) | 0.063 (≈ 0.163 µM) | C[C@@H](n1ncc2cc(F)ccc21)[C@](O)(Cn1cncn1)c1ccc(F)cc1F
≤ 0.015 | > 8 | 4 (≈ 9.65 µM) | 0.125 (≈ 0.302 µM) | 1 (≈ 2.41 µM) | 0.25 (≈ 0.603 µM) | 1 (≈ 2.41 µM) | 2 (≈ 4.83 µM) | 1 (≈ 2.41 µM) | 4 (≈ 9.65 µM) | 0.063 (≈ 0.152 µM) | C[C@@H](n1cc2c([N+](=O)[O-])cccc2n1)[C@](O)(Cn1cncn1)c1ccc(F)cc1F
0.25 (≈ 0.65 µM) | > 8 | 8 (≈ 20.8 µM) | 0.25 (≈ 0.65 µM) | 1 (≈ 2.6 µM) | 2 (≈ 5.2 µM) | – | – | – | – | 1 (≈ 2.6 µM) | C[C@@H](n1ncc2cc(N)ccc21)[C@](O)(Cn1cncn1)c1ccc(F)cc1F
≤ 0.015 | 4 (≈ 8.92 µM) | 2 (≈ 4.46 µM) | ≤ 0.015 | 1 (≈ 2.23 µM) | 0.125 (≈ 0.279 µM) | 2 (≈ 4.46 µM) | 4 (≈ 8.92 µM) | 4 (≈ 8.92 µM) | 4 (≈ 8.92 µM) | ≤ 0.015 | C[C@@H](n1ncc2cc(Br)ccc21)[C@](O)(Cn1cncn1)c1ccc(F)cc1F
≤ 0.015 | 4 (≈ 9.65 µM) | 0.5 (≈ 1.21 µM) | ≤ 0.015 | ≤ 0.015 | ≤ 0.015 | 2 (≈ 4.83 µM) | 1 (≈ 2.41 µM) | 2 (≈ 4.83 µM) | 4 (≈ 9.65 µM) | 0.125 (≈ 0.302 µM) | C[C@@H](n1ncc2cccc([N+](=O)[O-])c21)[C@](O)(Cn1cncn1)c1ccc(F)cc1F
≤ 0.015 | 2 (≈ 4.83 µM) | 1 (≈ 2.41 µM) | ≤ 0.015 | ≤ 0.015 | 0.031 (≈ 0.0748 µM) | 1 (≈ 2.41 µM) | 2 (≈ 4.83 µM) | 1 (≈ 2.41 µM) | 2 (≈ 4.83 µM) | 0.031 (≈ 0.0748 µM) | C[C@@H](n1ncc2c([N+](=O)[O-])cccc21)[C@](O)(Cn1cncn1)c1ccc(F)cc1F
